Each block holds one compound with its values, some of them ahead of it.
Tests used:
[1] = test system: Hepatocyte; assay: Metabolic stability in rat hepatocytes assessed as compound remaining at 10 uM after 15 mins; format: ADME, cell-based; details: 0.25 h
[2] = test system: Hepatocyte; assay: Drug metabolism in human hepatocytes assessed as (S)-2-(4-(trifluoromethylsulfonyloxy)phenyl)propanoic acid level at 10 uM after 15 mins; format: ADME, cell-based; details: 0.25 h
[3] = test system: Hepatocyte; assay: Metabolic stability in human hepatocytes assessed as compound remaining at 10 uM after 60 mins; format: ADME, cell-based; details: 1 h
[4] = test system: Hepatocyte; assay: Drug metabolism in rat hepatocytes assessed as (S)-2-(4-(trifluoromethylsulfonyloxy)phenyl)propanoic acid level at 10 uM after 30 mins; format: ADME, cell-based; details: 0.5 h
[5] = molecular target: T1, C-X-C chemokine receptor type 2 (Homo sapiens) (UniProt P25025); assay: Inhibition of CXCR2 in human polymorphonucleate cells assessed as inhibition of CXCL1-induced chemotaxis at 10^-8 M incubated for 15 mins prior to CXCL1-induction measured after 45 mins
T1 sequence (whole entry): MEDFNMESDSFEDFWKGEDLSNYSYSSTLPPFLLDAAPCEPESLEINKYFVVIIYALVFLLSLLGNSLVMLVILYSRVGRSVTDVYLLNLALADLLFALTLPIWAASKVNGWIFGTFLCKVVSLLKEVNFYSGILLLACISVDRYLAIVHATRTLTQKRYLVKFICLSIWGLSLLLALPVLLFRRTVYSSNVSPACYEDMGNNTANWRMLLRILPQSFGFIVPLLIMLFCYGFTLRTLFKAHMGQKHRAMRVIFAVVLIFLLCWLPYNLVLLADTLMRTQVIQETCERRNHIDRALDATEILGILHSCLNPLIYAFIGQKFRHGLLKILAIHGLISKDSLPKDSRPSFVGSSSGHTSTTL

[6] = test system: Hepatocyte; assay: Drug metabolism in rat hepatocytes assessed as (S)-2-(4-(trifluoromethylsulfonyloxy)phenyl)propanoic acid level at 10 uM after 15 mins; format: ADME, cell-based; details: 0.25 h
[7] = Chemical stability of the compound assessed as compound remaining at pH 7.4 after 2 hrs; format: physicochemical; details: buffer, read-out: Stability
[8] = molecular target: CYP2C19 (Homo sapiens, UniProt P33261); assay: Inhibition of CYP2C19 using DBF as substrate at 10 uM; format: ADME; details: probe DBF
[9] = test system: Hepatocyte; assay: Drug metabolism in human hepatocytes assessed as (S)-2-(4-(trifluoromethylsulfonyloxy)phenyl)propanoic acid level at 10 uM after 60 mins; format: ADME, cell-based; details: 1 h
[10] = Dissociation constant, pKa of the compound; format: physicochemical
[11] = test system: Hepatocyte; assay: Drug metabolism in rat hepatocytes assessed as (S)-2-(4-(trifluoromethylsulfonyloxy)phenyl)propanoic acid level at 10 uM after 90 mins; format: ADME, cell-based; details: 1.5 h
[12] = test system: Hepatocyte; assay: Metabolic stability in human hepatocytes assessed as compound remaining at 10 uM after 120 mins; format: ADME, cell-based; details: 2 h
[13] = Metabolic stability in rat plasma assessed as compound remaining at 1 uM after 1 hr; format: ADME, cell-free; details: read-out: Stability
[14] = molecular target: CYP3A4 (Homo sapiens, UniProt P08684); assay: Inhibition of CYP3A4 using BFC as substrate at 10 uM; format: ADME; details: probe BFC
[15] = molecular target: CYP2D6 (Homo sapiens, UniProt P10635); assay: Inhibition of CYP2D6 using AMMC as substrate at 10 uM; format: ADME; details: probe AMMC
[16] = test system: Hepatocyte; assay: Drug metabolism in human hepatocytes assessed as (S)-2-(4-(trifluoromethylsulfonyloxy)phenyl)propanoic acid level at 10 uM after 90 mins; format: ADME, cell-based; details: 1.5 h
[17] = Chemical stability of the compound assessed as compound remaining at pH 3.5 after 2 hrs; format: physicochemical; details: buffer, read-out: Stability
[18] = test system: Hepatocyte; assay: Drug metabolism in human hepatocytes assessed as (S)-2-(4-(trifluoromethylsulfonyloxy)phenyl)propanoic acid level at 10 uM after 30 mins; format: ADME, cell-based; details: 0.5 h
[19] = test system: Hepatocyte; assay: Metabolic stability in rat hepatocytes assessed as compound remaining at 10 uM after 30 mins; format: ADME, cell-based; details: 0.5 h
[20] = test system: Hepatocyte; assay: Drug metabolism in rat hepatocytes assessed as (S)-2-(4-(trifluoromethylsulfonyloxy)phenyl)propanoic acid level at 10 uM after 120 mins; format: ADME, cell-based; details: 2 h
[21] = Chemical stability of the compound assessed as compound remaining at pH 9 after 2 hrs; format: physicochemical; details: buffer, read-out: Stability
[22] = test system: Hepatocyte; assay: Metabolic stability in rat hepatocytes assessed as compound remaining at 10 uM after 120 mins; format: ADME, cell-based; details: 2 h
[23] = test system: Hepatocyte; assay: Drug metabolism in human hepatocytes assessed as (S)-2-(4-(trifluoromethylsulfonyloxy)phenyl)propanoic acid level at 10 uM after 120 mins; format: ADME, cell-based; details: 2 h
[24] = test system: Hepatocyte; assay: Metabolic stability in rat hepatocytes assessed as compound remaining at 10 uM after 90 mins; format: ADME, cell-based; details: 1.5 h
[25] = molecular target: T2, CYP1A2 (Homo sapiens, UniProt P05177); assay: Inhibition of CYP1A2 using CEC as substrate at 10 uM; format: ADME; details: probe CEC
T2 sequence (P05177 whole entry): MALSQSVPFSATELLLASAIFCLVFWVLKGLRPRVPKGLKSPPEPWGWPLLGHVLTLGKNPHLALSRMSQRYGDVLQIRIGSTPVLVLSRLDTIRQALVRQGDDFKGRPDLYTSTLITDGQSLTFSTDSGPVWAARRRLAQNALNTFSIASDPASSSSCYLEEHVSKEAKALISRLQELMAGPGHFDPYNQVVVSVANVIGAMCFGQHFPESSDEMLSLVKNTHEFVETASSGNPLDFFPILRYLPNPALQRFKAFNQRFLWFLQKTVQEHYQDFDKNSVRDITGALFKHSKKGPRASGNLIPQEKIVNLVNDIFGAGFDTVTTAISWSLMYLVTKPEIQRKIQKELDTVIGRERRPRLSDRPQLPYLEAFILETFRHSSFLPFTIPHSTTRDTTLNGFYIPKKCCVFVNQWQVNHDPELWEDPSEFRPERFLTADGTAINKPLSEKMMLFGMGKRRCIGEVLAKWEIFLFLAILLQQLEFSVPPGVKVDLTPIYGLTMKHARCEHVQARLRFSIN

[26] = test system: Hepatocyte; assay: Metabolic stability in human hepatocytes assessed as compound remaining at 10 uM after 90 mins; format: ADME, cell-based; details: 1.5 h
[27] = molecular target: CYP2C9 (Homo sapiens, UniProt P11712); assay: Inhibition of CYP2C9 using 7MFC as substrate at 10 uM; format: ADME; details: probe 7MFC
[28] = molecular target: Interleukin-8 receptors, CXCR1/CXCR2 (Homo sapiens) (UniProt P25025+P25024); assay: Inhibition of CXCR1/2 in human polymorphonucleate cells assessed as inhibition of CXCL8-induced chemotaxis at 10^-8 M incubated for 15 mins prior to CXCL8-induction measured after 45 mins
[29] = test system: Hepatocyte; assay: Metabolic stability in rat hepatocytes assessed as compound remaining at 10 uM after 60 mins; format: ADME, cell-based; details: 1 h
[30] = test system: Hepatocyte; assay: Metabolic stability in human hepatocytes assessed as compound remaining at 10 uM after 30 mins; format: ADME, cell-based; details: 0.5 h
[31] = test system: Hepatocyte; assay: Metabolic stability in human hepatocytes assessed as compound remaining at 10 uM after 15 mins; format: ADME, cell-based; details: 0.25 h
[32] = test system: Hepatocyte; assay: Drug metabolism in rat hepatocytes assessed as (S)-2-(4-(trifluoromethylsulfonyloxy)phenyl)propanoic acid level at 10 uM after 60 mins; format: ADME, cell-based; details: 1 h
[33] = Metabolic stability in rat liver microsomes assessed as compound remaining at 1 uM preincubated for 10 mins measured after 30 mins; format: ADME, Microsome; details: read-out: Stability
[34] = Half life in iv dosed rat plasma; format: ADME, organism-based

Chain of CYP2C19 (P33261 whole entry): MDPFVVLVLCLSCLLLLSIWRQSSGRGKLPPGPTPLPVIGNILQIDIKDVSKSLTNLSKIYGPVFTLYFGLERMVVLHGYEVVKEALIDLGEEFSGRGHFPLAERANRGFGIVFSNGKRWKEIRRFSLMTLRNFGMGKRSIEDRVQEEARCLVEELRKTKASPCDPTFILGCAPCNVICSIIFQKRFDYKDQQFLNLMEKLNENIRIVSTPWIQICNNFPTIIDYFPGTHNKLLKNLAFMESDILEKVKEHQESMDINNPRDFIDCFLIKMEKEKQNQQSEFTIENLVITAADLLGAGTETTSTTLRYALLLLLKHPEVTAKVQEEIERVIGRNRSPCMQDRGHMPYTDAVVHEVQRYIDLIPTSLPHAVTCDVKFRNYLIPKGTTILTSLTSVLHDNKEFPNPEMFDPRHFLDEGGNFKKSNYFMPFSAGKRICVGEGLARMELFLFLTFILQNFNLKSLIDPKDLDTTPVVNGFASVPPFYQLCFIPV
Chain of CYP2D6 (P10635 whole entry): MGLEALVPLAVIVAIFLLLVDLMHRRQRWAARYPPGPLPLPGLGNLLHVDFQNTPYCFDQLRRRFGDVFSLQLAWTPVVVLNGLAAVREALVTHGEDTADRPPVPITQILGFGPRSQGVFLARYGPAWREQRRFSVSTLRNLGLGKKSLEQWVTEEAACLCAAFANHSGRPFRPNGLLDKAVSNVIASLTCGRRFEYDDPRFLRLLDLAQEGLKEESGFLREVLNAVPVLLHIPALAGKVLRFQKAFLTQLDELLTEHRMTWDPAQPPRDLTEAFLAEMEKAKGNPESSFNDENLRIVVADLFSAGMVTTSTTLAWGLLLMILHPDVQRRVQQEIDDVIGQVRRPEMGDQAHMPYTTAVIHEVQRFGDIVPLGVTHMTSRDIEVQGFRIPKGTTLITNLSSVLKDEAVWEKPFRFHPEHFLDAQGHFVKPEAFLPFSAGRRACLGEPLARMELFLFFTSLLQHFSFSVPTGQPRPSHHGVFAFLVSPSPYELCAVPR
Chain of CYP2C9 (P11712 whole entry): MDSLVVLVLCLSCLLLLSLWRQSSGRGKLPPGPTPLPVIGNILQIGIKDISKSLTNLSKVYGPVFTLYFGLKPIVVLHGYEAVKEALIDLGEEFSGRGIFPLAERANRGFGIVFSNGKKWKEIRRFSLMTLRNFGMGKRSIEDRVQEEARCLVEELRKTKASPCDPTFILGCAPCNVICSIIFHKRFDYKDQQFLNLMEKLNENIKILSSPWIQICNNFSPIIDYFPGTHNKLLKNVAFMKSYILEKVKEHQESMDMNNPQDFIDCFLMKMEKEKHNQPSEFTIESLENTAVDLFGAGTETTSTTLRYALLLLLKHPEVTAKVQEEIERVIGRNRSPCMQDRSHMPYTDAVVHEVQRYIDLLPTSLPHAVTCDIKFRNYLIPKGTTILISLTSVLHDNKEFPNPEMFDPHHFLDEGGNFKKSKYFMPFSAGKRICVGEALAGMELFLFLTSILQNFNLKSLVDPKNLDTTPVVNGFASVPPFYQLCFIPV
Chain of CYP3A4 (P08684 whole entry): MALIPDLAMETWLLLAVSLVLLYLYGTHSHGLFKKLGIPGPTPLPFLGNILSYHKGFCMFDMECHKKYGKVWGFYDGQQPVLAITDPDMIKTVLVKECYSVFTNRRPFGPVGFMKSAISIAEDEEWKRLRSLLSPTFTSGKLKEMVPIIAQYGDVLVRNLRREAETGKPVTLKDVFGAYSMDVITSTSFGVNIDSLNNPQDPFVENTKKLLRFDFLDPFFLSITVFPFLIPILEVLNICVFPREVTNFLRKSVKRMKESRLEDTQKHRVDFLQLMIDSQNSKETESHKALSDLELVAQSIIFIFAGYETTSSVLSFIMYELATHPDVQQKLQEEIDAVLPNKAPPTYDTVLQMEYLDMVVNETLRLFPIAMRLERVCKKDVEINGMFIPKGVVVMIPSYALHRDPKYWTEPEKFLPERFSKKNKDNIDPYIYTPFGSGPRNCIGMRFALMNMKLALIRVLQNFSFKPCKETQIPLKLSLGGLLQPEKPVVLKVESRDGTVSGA

Stability [1]: 2839 ng/mL
Drug metabolism [2]: 21 ng/mL
Stability [3]: 2696 ng/mL
Drug metabolism [4]: 210 ng/mL
inhibition [5]: 63%
Drug metabolism [6]: 117 ng/mL
remaining at 2 h [7]: > 99%
inhibition at 10 µM [8]: < 5%
Drug metabolism [9]: 240 ng/mL
pKa [10]: 4
Drug metabolism [11]: 664 ng/mL
Stability [12]: 2541 ng/mL
remaining at 1 h, 1 µM [13]: 100%
inhibition at 10 µM [14]: < 5%
inhibition at 10 µM [15]: < 5%
Drug metabolism [16]: 260 ng/mL
remaining at 2 h [17]: > 99%
Drug metabolism [18]: 84 ng/mL
Stability [19]: 2541 ng/mL
Drug metabolism [20]: 870 ng/mL
remaining at 2 h [21]: 30%
Stability [22]: 1946 ng/mL
Drug metabolism [23]: 330 ng/mL
Stability [24]: 2167 ng/mL
inhibition at 10 µM [25]: < 5%
Stability [26]: 2620 ng/mL
inhibition at 10 µM [27]: < 5%
inhibition [28]: 62%
Stability [29]: 2287 ng/mL
Stability [30]: 2844 ng/mL
Stability [31]: 2932 ng/mL
Drug metabolism [32]: 449 ng/mL
Structure (SMILES): C[C@@H](C(=O)O)c1ccc(OS(=O)(=O)C(F)(F)F)cc1

remaining at 0.5 h, 1 µM [33]: 75%
inhibition [5]: 38%
remaining at 1 h, 1 µM [13]: 85%
inhibition [28]: 49%
Structure (SMILES): CC(C)ONC(=O)[C@H](C)c1ccc(OS(=O)(=O)C(F)(F)F)cc1

inhibition [5]: 50%
inhibition at 10 µM [8]: 94%
inhibition at 10 µM [14]: 82%
inhibition at 10 µM [15]: 38%
inhibition at 10 µM [25]: < 5%
inhibition at 10 µM [27]: 87%
inhibition [28]: 60%
Structure (SMILES): C[C@@H](C(=O)Nc1nc(C(F)(F)F)co1)c1ccc(OS(=O)(=O)C(F)(F)F)cc1

inhibition [5]: 46%
inhibition at 10 µM [8]: 90%
inhibition at 10 µM [14]: 44%
inhibition at 10 µM [15]: < 5%
inhibition at 10 µM [25]: 15%
inhibition at 10 µM [27]: 70%
inhibition [28]: 47%
Structure (SMILES): C[C@@H](C(=O)Nc1ncco1)c1ccc(OS(=O)(=O)C(F)(F)F)cc1

inhibition [5]: 55%
inhibition at 10 µM [8]: 70%
inhibition at 10 µM [14]: 66%
inhibition at 10 µM [15]: 40%
inhibition at 10 µM [25]: < 5%
inhibition at 10 µM [27]: 50%
inhibition [28]: 54%
Structure (SMILES): C[C@@H](C(=O)Nc1nncs1)c1ccc(OS(=O)(=O)C(F)(F)F)cc1

inhibition [5]: 55%
inhibition at 10 µM [8]: 94%
inhibition at 10 µM [14]: 52%
inhibition at 10 µM [15]: 56%
inhibition at 10 µM [25]: 14%
inhibition at 10 µM [27]: 73%
inhibition [28]: 64%
Structure (SMILES): C[C@@H](C(=O)Nc1nc(C(F)(F)F)cs1)c1ccc(OS(=O)(=O)C(F)(F)F)cc1

inhibition [5]: 48%
inhibition [28]: 44%
Structure (SMILES): C[C@@H](C(=O)Nc1nnco1)c1ccc(OS(=O)(=O)C(F)(F)F)cc1

inhibition [5]: 45%
inhibition [28]: 44%
Structure (SMILES): C[C@@H](C(=O)NS(=O)(=O)C1CC1)c1ccc(OS(=O)(=O)C(F)(F)F)cc1

inhibition [5]: 45%
inhibition at 10 µM [8]: 21%
inhibition at 10 µM [14]: 8%
inhibition at 10 µM [15]: < 5%
inhibition at 10 µM [25]: < 5%
inhibition at 10 µM [27]: < 5%
inhibition [28]: 44%
Structure (SMILES): C[C@@H](C(=O)Nc1nnc[nH]1)c1ccc(OS(=O)(=O)C(F)(F)F)cc1

remaining at 0.5 h, 1 µM [33]: 75%
inhibition [5]: 49%
remaining at 2 h [7]: > 98%
remaining at 1 h, 1 µM [13]: 96%
half-life [34]: < 60 min
inhibition [28]: 47%
Structure (SMILES): C[C@@H](C(=O)N(C)O)c1ccc(OS(=O)(=O)C(F)(F)F)cc1

— ChEMBL document CHEMBL2021812, “Aryltriflates as a Neglected Moiety in Medicinal Chemistry: A Case Study from a Lead Optimization of CXCL8 Inhibitors” (ACS Med Chem Lett, 2011)
